Measurements published in US20180044306A1, “1,3,4-THIADIAZOL-2-YL-BENZAMIDE DERIVATIVES AS INHIBITORS OF THE WNT SIGNALLING PATHWAY” (Bayer Pharma Aktiengesellschaft, priority 2015, published 2018).

Assays:
[1] = system: constitutive active colorectal cancer cell (CRC) Wnt pathway (HCT116-TOP); test: Cellular reporter assay, HCT116 Super TopFlash (TOP), constitutive active Wnt pathway; format: cell-based; conditions: Homo sapiens, HCT-116; HCT116 Super TopFlash reporter cells, luciferase expression, 36 hours incubation, dilution series 50 μM to 15 nM
Description: In order to discover and characterize small molecules which inhibit the constitutive active colorectal cancer cell (CRC) Wnt pathway, a cellular reporter assay was employed. The corresponding assay cell was generated by transfection of the colorectal cancer cell line HCT116 (ATCC, #CCL-247) with the Super TopFlash vector (Morin, Science 275, 1997, 1787-1790; Molenaar et al., Cell 86 (3), 1996, 391-399). The HCT116 cell line is cultivated at 37° C. and 5% CO2 in DMEM/F-12 (Life Technologies, #11320-074), supplemented with 2 mM glutamine, 20 mM HEPES, 1.4 mM pyruvate, 0.15% Na-bicarbonate and 10% foetal bovine serum (GIBCO, #10270), this cancer cell line is pathophysiological relevant since it carries a deletion of position S45 in the β-catenin gene, leading to constitutive active Wnt signaling. Stable transfectants were generated by cotransfection with pcDNA3 and selection of stable transfected cells with 1 mg/ml G418.
(§1) In preparation of the assay, the two cell lines were plated 24 hours before at 10000 cells per well of a 384 micro titre plate (MTP) in 30 μL growth medium. Selective inhibitory activity for small molecules on the mutated Wnt pathway was determined after parallel incubation of both (TOP and FOP) HCT116 reporter cell lines with a compound dilution series from 50 μM to 15 nM in steps of 3.16-fold dilutions in CAFTY buffer (130 mM NaCI, 5 mM KCI, 20 mM HEPES, 1 mM MgCl2, 5 mM NaHCO3, pH 7.4) containing 2 mM Ca^2+ and 0.01% BSA. The compounds were thereby serially prediluted in 100% DMSO and thereafter in addition 50 fold into the CAFTY compound dilution buffer (described above). From this dilution 10 μL were added to the cells in 30 μL growth medium and incubated for 36 hours at 37° C. and 5% CO2. Thereafter luciferase assay buffer (1:1 mixture of luciferase substrate buffer (20 mM Tricine, 2.67 mM MgSO4, 0.1 mM EDTA, 4 mM DTT, 270 μM Coenzyme A, 470 μM Luciferin, 530 μM ATP, ph adjusted to pH 7.8 with a sufficient volume of 5M NaOH) and Triton buffer (30 mL Triton X-100, 115 mL glycerol, 308 mg Dithiothreitol, 4.45 g Na2HPO4. 2 H2O, 3.03 g TRIS HCl, ad 1I H2O, pH 7.8) was added as equal volume to the compound solution on the cells to determine luciferase expression as a measure of Wnt signaling activity in a luminometer.

[2] = system: HCT116-FOP; test: Control reporter assay, HCT116 cells with FOP control vector (non-functional TCF elements); format: cell-based; conditions: Homo sapiens, HCT-116, luciferase expression, 36 hours incubation, dilution series 50 μM to 15 nM, read-out: HCT116-FOP IC50 [M] mol/L]
Description: In a parallel approach, HCT116 cells were cotransfected with the FOP control vector and pcDNA3. The FOP vector is identical to the TOP construct, but it contains instead of functional TCF elements a randomized, non-functional sequence. For this transfection a stable transfected cell line was generated as well.
as §1

SMILES	IC50 [1]	IC50 [2]
CC1CCN(c2nnc(NC(=O)c3ccc(OC(F)(F)F)c(NC(=O)CN4CCOCC4)c3)s2)CC1 [Example 25, N-[5-(4-methylpiperidin-1-yl)-1,3,4-thiadiazol-2-yl]-3-[(morpholin-4-ylacetyl)-amino]-4-(trifluoromethoxy)-benzamide]	13 µM	≥ 5e-05 M
CC(=O)N1CCN(c2nnc(NC(=O)c3ccc(OC(F)(F)F)c(NC(=O)CN4CCOCC4)c3)s2)CC1 [Example 26, N-[5-(4-acetylpiperazin-1-yl)-1,3,4-thiadiazol-2-yl]-3-[(morpholin-4-ylacetyl)amino]-4-(trifluoromethoxy)benzamide]	15 µM	≥ 5e-05 M
CC1(O)CCN(c2nnc(NC(=O)c3ccc(OC(F)(F)F)c(NC(=O)CN4CCOCC4)c3)s2)CC1 [Example 27]	20 µM	≥ 5e-05 M
CN1CCN(CC(=O)Nc2cc(C(=O)Nc3nnc(N4CCC(C(C)(C)O)CC4)s3)ccc2OC(F)(F)F)CC1 [Example 28, N-{5-[4-(2-hydroxypropan-2-yl)piperidin-1-yl]-1,3,4-thiadiazol-2-yI}-3-{[(4-methylpiperazin-1-yl)-acetyl]amino}-4-(trifluoromethoxy)benzamide]	20 µM	2.69e-05 M
O=C(CN1CCOCC1)Nc1cc(C(=O)Nc2nnc(N3CCC(O)CC3)s2)ccc1OC(F)(F)F [Example 29, N-[5-(4-hydroxypiperidin-1-yl)-1,3,4-thiadiazol-2-yl]-3-[(morpholin-4-ylacetyl)-amino]-4-(trifluoromethoxy)-benzamide]	26.8 µM	≥ 5e-05 M
COC1CCN(c2nnc(NC(=O)c3ccc(OC(F)(F)F)c(NC(=O)CN4CCOCC4)c3)s2)CC1 [Example 30, N-[5-(4-methoxypiperidin-1-yl)-1,3,4-thiadiazol-2-yl]-3-((morpholin-4-ylacetyl)-amino]-4-(trifluoromethoxy)-benzamide]	33.5 µM	≥ 5e-05 M
O=C(CN1CCOCC1)Nc1cc(C(=O)Nc2nnc(N3CCCCC3)s2)ccc1OC(F)(F)F [Example 31, 3-[(morpholin-4-ylacetyl)-amino]-N-[5-(piperidin-1-yl)-1,3,4-thiadiazol-2-yl]-4-(trifluoromethoxy)benzamide]	34.1 µM	≥ 5e-05 M

More lines, now with the values ahead:

IC50 [1]	IC50 [2]	SMILES
50 µM	≥ 5e-05 M	O=C(CN1CCOCC1)Nc1cc(C(=O)Nc2nnc(N3CCCC3)s2)ccc1OC(F)(F)F [Example 32, 3-[(morpholin-4-ylacetyl)-amino]-N-(5-(pyrrolidin-1-yl)-1,3,4-thiadiazol-2-yl)-4-(trifluoromethoxy)benzamide]
50 µM	≥ 5e-05 M	CN(C)C(=O)N1CCN(c2nnc(NC(=O)c3ccc(OC(F)(F)F)c(NC(=O)CN4CCOCC4)c3)s2)CC1 [Example 33]
50 µM	≥ 5e-05 M	CC1(C)CCN(c2nnc(NC(=O)c3ccc(OC(F)(F)F)c(NC(=O)CN4CCOCC4)c3)s2)CC1 [Example 34, N-[5-(4,4-dimethylpiperidin-1-yl)-1,3,4-thiadiazol-2-yl]-3-[(morpholin-4-ylacetyl)-amino]-4-(trifluoromethoxy)-benzamide]
